According to PubChem BioAssay (NCI):
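Here, GI50 denotes the concentration required for 50% inhibition of growth. TGI denotes the concentration required for complete inhibition of growth.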

What was measured:
Assay in all cases: inhibition of tumour cell growth, NCI panel, 384-well format; in the data active means GI50 below about 0.43 µM; inactive means the rest
MDA-MB-435 melanoma = system: MDA-MB-435 melanoma
SN12C renal = system: SN12C renal
MOLT-4 leukemia = system: MOLT-4 leukemia
SNB-75 CNS = system: SNB-75 CNS
SK-MEL-28 melanoma = system: SK-MEL-28 melanoma
SK-OV-3 ovarian = system: SK-OV-3 ovarian
UO-31 renal = system: UO-31 renal
NCI-H460 NSCLC = system: NCI-H460 NSCLC
OVCAR-8 ovarian = system: OVCAR-8 ovarian
BT-549 breast = system: BT-549 breast
PC-3 prostate = system: PC-3 prostate
SF-539 CNS = system: SF-539 CNS
SF-268 CNS = system: SF-268 CNS
A498 renal = system: A498 renal
OVCAR-3 ovarian = system: OVCAR-3 ovarian
HCT-116 colon = system: HCT-116 colon
RPMI-8226 leukemia = system: RPMI-8226 leukemia
HOP-62 NSCLC = system: HOP-62 NSCLC
M14 melanoma = system: M14 melanoma
UACC-257 melanoma = system: UACC-257 melanoma
TK-10 renal = system: TK-10 renal
NCI-H226 lung = system: NCI-H226 lung
786-0 renal = system: 786-0 renal
U251 glioblastoma = system: U251 glioblastoma
MALME-3M melanoma = system: MALME-3M melanoma
HCC-2998 colon = system: HCC-2998 colon
CAKI-1 renal = system: CAKI-1 renal
HL-60(TB) leukemia = system: HL-60(TB) leukemia
KM12 colon = system: KM12 colon
NCI/ADR-RES ovarian = system: NCI/ADR-RES ovarian
COLO 205 colon = system: COLO 205 colon
NCI-H522 lung = system: NCI-H522 lung
T-47D breast = system: T-47D breast
MDA-MB-231 breast = system: MDA-MB-231 breast
IGROV1 ovarian = system: IGROV1 ovarian
OVCAR-5 ovarian = system: OVCAR-5 ovarian
EKVX NSCLC = system: EKVX NSCLC
HOP-92 NSCLC = system: HOP-92 NSCLC
SF-295 CNS = system: SF-295 CNS
OVCAR-4 ovarian = system: OVCAR-4 ovarian
A549 NSCLC = system: A549 NSCLC
SNB-19 CNS = system: SNB-19 CNS
LOX IMVI melanoma = system: LOX IMVI melanoma
RXF 393 renal = system: RXF 393 renal
SK-MEL-5 melanoma = system: SK-MEL-5 melanoma
NCI-H322M lung = system: NCI-H322M lung
MCF7 breast = system: MCF7 breast
HCT-15 colon = system: HCT-15 colon
NCI-H23 lung = system: NCI-H23 lung
SR leukemia = system: SR leukemia
HS 578T breast = system: HS 578T breast
MDA-MB-468 breast = system: MDA-MB-468 breast
UACC-62 melanoma = system: UACC-62 melanoma
ACHN renal = system: ACHN renal
SW-620 colon = system: SW-620 colon
DU-145 prostate = system: DU-145 prostate

C#CCC(Cc1cnc2nc(N)nc(N)c2n1)c1ccc(C(=O)N[C@@H](CCC(=O)O)C(=O)O)cc1 (some centres not stated)
2410 nM: TGI (MDA-MB-231 breast)
> 100000 nM: TGI (NCI-H460 NSCLC) | TGI (HCT-116 colon) | TGI (HCC-2998 colon) | TGI (KM12 colon) | TGI (MCF7 breast) | TGI (HCT-15 colon) | TGI (DU-145 prostate)
inactive: GI50 (MDA-MB-231 breast) 905 nM
active: GI50 (MDA-MB-435 melanoma) < 10 nM | GI50 (SN12C renal) < 10 nM | GI50 (MOLT-4 leukemia) < 10 nM | GI50 (SNB-75 CNS) < 10 nM | GI50 (SK-MEL-28 melanoma) < 10 nM | GI50 (SK-OV-3 ovarian) < 10 nM | GI50 (UO-31 renal) < 10 nM | GI50 (NCI-H460 NSCLC) < 10 nM | GI50 (OVCAR-8 ovarian) < 10 nM | GI50 (BT-549 breast) < 10 nM | GI50 (PC-3 prostate) < 10 nM | GI50 (SF-539 CNS) < 10 nM | GI50 (SF-268 CNS) < 10 nM | GI50 (A498 renal) < 10 nM | GI50 (OVCAR-3 ovarian) < 10 nM | GI50 (HCT-116 colon) < 10 nM | GI50 (RPMI-8226 leukemia) < 10 nM | GI50 (HOP-62 NSCLC) < 10 nM | GI50 (M14 melanoma) < 10 nM | GI50 (UACC-257 melanoma) < 10 nM | GI50 (TK-10 renal) < 10 nM | GI50 (NCI-H226 lung) < 10 nM | GI50 (786-0 renal) < 10 nM | GI50 (U251 glioblastoma) < 10 nM | GI50 (MALME-3M melanoma) < 10 nM | GI50 (HCC-2998 colon) < 10 nM | GI50 (CAKI-1 renal) < 10 nM | GI50 (HL-60(TB) leukemia) < 10 nM | GI50 (KM12 colon) < 10 nM | GI50 (NCI/ADR-RES ovarian) < 10 nM | GI50 (COLO 205 colon) < 10 nM | GI50 (NCI-H522 lung) < 10 nM | GI50 (T-47D breast) < 10 nM | GI50 (IGROV1 ovarian) < 10 nM | GI50 (OVCAR-5 ovarian) < 10 nM | GI50 (EKVX NSCLC) < 10 nM | GI50 (HOP-92 NSCLC) < 10 nM | GI50 (SF-295 CNS) < 10 nM | GI50 (OVCAR-4 ovarian) < 10 nM | GI50 (A549 NSCLC) < 10 nM | GI50 (SNB-19 CNS) < 10 nM | GI50 (LOX IMVI melanoma) < 10 nM | GI50 (RXF 393 renal) < 10 nM | GI50 (SK-MEL-5 melanoma) < 10 nM | GI50 (NCI-H322M lung) < 10 nM | GI50 (MCF7 breast) < 10 nM | GI50 (HCT-15 colon) < 10 nM | GI50 (NCI-H23 lung) < 10 nM | GI50 (SR leukemia) < 10 nM | GI50 (HS 578T breast) < 10 nM | GI50 (MDA-MB-468 breast) < 10 nM | GI50 (UACC-62 melanoma) < 10 nM | GI50 (ACHN renal) < 10 nM | GI50 (SW-620 colon) < 10 nM | GI50 (DU-145 prostate) < 10 nM
< 10 nM: TGI (MDA-MB-435 melanoma) | TGI (SN12C renal) | TGI (MOLT-4 leukemia) | TGI (SNB-75 CNS) | TGI (SK-MEL-28 melanoma) | TGI (SK-OV-3 ovarian) | TGI (UO-31 renal) | TGI (OVCAR-8 ovarian) | TGI (BT-549 breast) | TGI (PC-3 prostate) | TGI (SF-539 CNS) | TGI (SF-268 CNS) | TGI (A498 renal) | TGI (OVCAR-3 ovarian) | TGI (RPMI-8226 leukemia) | TGI (HOP-62 NSCLC) | TGI (M14 melanoma) | TGI (UACC-257 melanoma) | TGI (TK-10 renal) | TGI (NCI-H226 lung) | TGI (786-0 renal) | TGI (U251 glioblastoma) | TGI (MALME-3M melanoma) | TGI (CAKI-1 renal) | TGI (HL-60(TB) leukemia) | TGI (NCI/ADR-RES ovarian) | TGI (COLO 205 colon) | TGI (NCI-H522 lung) | TGI (T-47D breast) | TGI (IGROV1 ovarian) | TGI (OVCAR-5 ovarian) | TGI (EKVX NSCLC) | TGI (HOP-92 NSCLC) | TGI (SF-295 CNS) | TGI (OVCAR-4 ovarian) | TGI (A549 NSCLC) | TGI (SNB-19 CNS) | TGI (LOX IMVI melanoma) | TGI (RXF 393 renal) | TGI (SK-MEL-5 melanoma) | TGI (NCI-H322M lung) | TGI (NCI-H23 lung) | TGI (SR leukemia) | TGI (HS 578T breast) | TGI (MDA-MB-468 breast) | TGI (UACC-62 melanoma) | TGI (ACHN renal) | TGI (SW-620 colon)
